Laboratory results reported in BindingDB's records for doi:10.1021/jm00053a012 (Washington University, 1993).

Molecular target: calcium-independent phospholipase A2 (Canis familiaris)
Experiment: Compounds were evaluated for the inhibitory activity against canine myocardial cytosolic calcium-independent phospholipase A2.

Compound	IC50 [nM]
O=C1O/C(=C/I)CCC1c1cccc2ccccc12 (configuration not stated) [(E)-6-Iodomethylene-3-naphthalen-1-yl-tetrahydro-pyran-2-one]	30
O=C1O/C(=C\I)CCC1c1cccc2ccccc12 (configuration not stated) [(Z)-6-(iodomethylene)-3-(naphthalen-1-yl)tetrahydro-2H-pyran-2-one]	190
